Laboratory results: US20250339399A1, “SUPRAMOLECULAR SELF-ASSEMBLY SYSTEM” (Beijing Creatron Institute of Pharmaceutical Research Co., …, priority 2022, published 2025)

Tests used:
[1] = Guest molecule concentration after incubation in initial medium without polymer (Comparative Example 1); assay type: physicochemical; settings: 37° C., pH 6.8 phosphate buffer
Method in brief: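 Dissolved guest content measured by HPLC of centrifuged supernatants (37° C., 13000 rpm, 5 min) sampled at 0.5 h, 3 h and 6 h. Incubation was polymer-free at 37° C.±0.5° C. in buffers of pH 2.0-7.4; nominal loading was set by maximum clinical dose.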

[2] = cited from earlier work
[3] = Binary (carrier), ternary and quaternary supramolecular self-assembly systems of polymer, carrier building block and target: guest concentration over incubation time (Examples 1-56); assay type: physicochemical; settings: for Concentration of guest molecule in solution / Times that of the initial medium: 6 h
Method in brief: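 Targets were incubated at 37 °C in pH 2.0–7.4 buffers with 0.5% polymer alone or with carrier building blocks, after 0.5 h sonication for ternary systems, and shaken at 200 rpm. Samples at 0.5–6 h were centrifuged and diluted ≥10-fold, and dissolved target was quantified by HPLC; surfactant was added if needed.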

[4] = Binary supramolecular self-assembly systems of polymer and target: guest concentration over incubation time (Comparative Example 2); assay type: physicochemical; settings: 6 h
Experimental: Experiments were conducted according to the steps in Comparative Example 1, and quantitative analysis was carried out using the analytical method for each target to investigate the regulation ability […] stacking.

[5] = binary: 310, % not stated at the place
[6] = binary: 312, % not stated at the place

Concentration of guest molecule measured after different incubated time ([1]; 0.5 h): 49.8 µg/mL
Concentration of guest molecule measured after different incubated time ([1]; 3 h): 48.7 µg/mL
Concentration of guest molecule measured after different incubated time ([1]; 6 h): 48.0 µg/mL
Concentration of guest molecule in solution ([3]; binary, no polymer: 0.5% 301): 366.6 µg/mL
Times that of the initial medium ([3]; binary, no polymer: 0.5% 301): 7.5 times
Concentration of guest molecule in solution [3, 5]: 300.0 µg/mL
Times that of the initial medium [3, 5]: 6.3 times
Concentration of guest molecule in solution [3, 6]: 397.9 µg/mL
Times that of the initial medium [3, 6]: 8.2 times
Concentration of guest molecule in solution ([3]; ternary: 102H (0.25% where stated) + 301, carrier % not stated): 334.8 µg/mL
Concentration of guest molecule in solution ([3]; ternary: 102H (0.25% where stated) + 302, carrier % not stated): 312.6 µg/mL
Encapsulation rate for the guest molecule ([3]; ternary: 102H + 313 or 318): ~100%
Concentration of guest molecule in solution ([4]; binary: 0.25% 102H): 127.7 µg/mL
Times that of the initial medium ([4]; binary: 0.25% 102H): 2.7 times
Concentration of guest molecule in solution ([4]; binary: 0.25% 103E5): 114.6 µg/mL
Times that of the initial medium ([4]; binary: 0.25% 103E5): 2.4 times
Concentration of guest molecule in solution ([4]; binary: 0.5% 102H): 327.6 µg/mL
Times that of the initial medium ([4]; binary: 0.5% 102H): 6.7 times
Compound: COc1ccc(-n2nc(C(N)=O)c3c2C(=O)N(c2ccc(N4CCCCC4=O)cc2)CC3)cc1 [Apixaban]
LogP [2]: LogP 1.83
